Laboratory results taken from PubChem BioAssay AID204 (DTP/NCI, 2004).
Several values for one entry are separate records, joined by “and”; a condition that tells them apart may be missing. Equal values may be shown once. Toxic doses and inconclusive results are not listed.

Test system: BDF1 mice, P288 methotrexate-resistant leukemia, survival T/C
Assay: NCI In Vivo Anticancer Drug Screen. Data for tumor model P288 Lymphocytic Leukemia resistant to methotrexate; NSC 740 (intraperitoneal) in B6D2F1 (BDF1) mice
Conditions: endpoint: median survival time, schedule: Q01DX010 (ip), higher = longer survival
Experimental: The antitumor activity of compounds was measured in mice bearing transplantable tumors. Survival or tumor size were measured and the results are expressed as the measurement made in the treated group (T) divided by the measurement made in the vehicle treated control group (C). The tumor model used in this assay is P288 Lymphocytic Leukemia resistant to methotrexate; NSC 740 (intraperitoneal) in B6D2F1 (BDF1) mice

[1] = dose: 6.25 mg/kg/injection, vehicle: saline
[2] = dose: 12.5 mg/kg/injection, vehicle: saline
[3] = dose: 62.5 mg/kg/injection, vehicle: saline
[4] = dose: 500.0 mg/kg/injection, vehicle: saline
[5] = dose: 0.5 mg/kg/injection, vehicle: saline
[6] = dose: 1.0 mg/kg/injection, vehicle: saline
[7] = dose: 2.0 mg/kg/injection, vehicle: saline
[8] = dose: 4.0 mg/kg/injection, vehicle: saline
[9] = dose: 8.0 mg/kg/injection, vehicle: saline
[10] = dose: 16.0 mg/kg/injection, vehicle: saline
[11] = dose: 125.0 mg/kg/injection, vehicle: saline
[12] = dose: 250.0 mg/kg/injection, vehicle: saline

SMILES: Nc1nc2n[nH]nc2c(=O)[nH]1
- T/C (dose: 25.0 mg/kg/injection, vehicle: alkali diluted with saline): 110 % of control
- T/C (dose: 50.0 mg/kg/injection, vehicle: alkali diluted with saline): 112 % of control

SMILES: C[C@H]1C(=O)O[C@@H]2CCN3CC=C(COC(=O)[C@](C)(O)[C@@]1(C)O)[C@H]23
- T/C (dose: 3.13 mg/kg/injection, vehicle: saline): 100 % of control and 103 % of control
- T/C [1]: 91 % of control and 111 % of control
- T/C [2]: 91 % of control
- T/C (dose: 25.0 mg/kg/injection, vehicle: saline): 91 % of control and 96 % of control

SMILES: c1ccc(CCSc2ncnc3nc[nH]c23)cc1
- T/C (dose: 15.6 mg/kg/injection, vehicle: saline): 86 % of control
- T/C (dose: 31.3 mg/kg/injection, vehicle: saline): 86 % of control
- T/C [3]: 100 % of control
- T/C [4]: 87 % of control

SMILES: O=NN(CCCl)C(=O)NCCCl
- T/C [1]: 280 % of control and 300 % of control
- T/C [2]: 180 % of control

SMILES: NC(=O)N(CCCl)N=O
- T/C [5]: 210 % of control and 213 % of control
- T/C [6]: 300 % of control
- T/C [7]: 168 % of control and 300 % of control
- T/C [8]: 90 % of control

SMILES: Nc1nc(=S)c2ncn(C3OC(CO)C(O)C3O)c2[nH]1 (centres undefined)
- T/C [7]: 90 % of control and 91 % of control and 115 % of control
- T/C [8]: 91 % of control and 96 % of control and 120 % of control
- T/C [9]: 93 % of control
- T/C [10]: 90 % of control (2×) and 91 % of control

SMILES: O=C(Nc1ccc(NC2=NCCN2)cc1)c1ccc(C(=O)Nc2ccc(NC3=NCCN3)cc2)cc1
- T/C [7]: 150 % of control
- T/C [8]: 240 % of control and 250 % of control
- T/C [9]: 250 % of control and 285 % of control
- T/C [10]: 115 % of control

SMILES: O[C@H](CN1CC1)[C@@H](O)CN1CC1
- T/C (dose: 62.5 micrograms/kg/injection, vehicle: saline): 100 % of control
- T/C (dose: 250.0 micrograms/kg/injection, vehicle: saline): 155 % of control and 181 % of control

SMILES: CCOC(N)=O
- T/C [11]: 100 % of control
- T/C [12]: 100 % of control
- T/C [4]: 100 % of control
- T/C (dose: 1000.0 mg/kg/injection, vehicle: saline): 87 % of control and 88 % of control

SMILES: O=c1cn[nH]c(=O)[nH]1
- T/C [3]: 90 % of control and 110 % of control
- T/C [11]: 105 % of control and 110 % of control
- T/C [12]: 105 % of control and 120 % of control
- T/C [4]: 110 % of control and 120 % of control

SMILES: CCCCn1cnc2c(=S)nc[nH]c21
- T/C [7]: 86 % of control
- T/C [8]: 86 % of control
- T/C [9]: 90 % of control

SMILES: N#CCSc1ncnc2nc[nH]c12
- T/C (dose: 15.0 mg/kg/injection, vehicle: saline): 91 % of control
- T/C (dose: 30.0 mg/kg/injection, vehicle: saline): 94 % of control and 95 % of control
- T/C (dose: 60.0 mg/kg/injection, vehicle: saline): 91 % of control and 94 % of control
- T/C (dose: 120.0 mg/kg/injection, vehicle: saline): 94 % of control

SMILES: c1ccc(CNc2ncnc3[nH]ncc23)cc1
- T/C [9]: 90 % of control and 115 % of control
- T/C [10]: 100 % of control and 110 % of control
- T/C (dose: 32.0 mg/kg/injection, vehicle: saline): 100 % of control and 110 % of control
- T/C (dose: 64.0 mg/kg/injection, vehicle: saline): 110 % of control

SMILES: CO[C@H](C(=O)[C@@H](O)[C@@H](C)O)[C@@H]1Cc2cc3cc(OC4CC(OC5CC(O)C(O)C(C)O5)C(O)C(C)O4)c(C)c(O)c3c(O)c2C(=O)[C@H]1OC1CC(OC2CC(OC3CC(C)(O)C(O)C(C)O3)C(O)C(C)O2)C(O)C(C)O1 (some centres undefined)
- T/C (dose: 0.25 mg/kg/injection, vehicle: saline): 95 % of control
- T/C [5]: 95 % of control
- T/C [6]: 104 % of control

SMILES: CS(=O)(=O)OCCN(CCOS(C)(=O)=O)c1ccc(N=O)cc1
- T/C [5]: 120 % of control

SMILES: O=c1[nH]c(=O)n(C2CC(O)C(CO)O2)cc1F (centres undefined)
- T/C (dose: 5.0 mg/kg/injection, vehicle: saline): 95 % of control
- T/C (dose: 10.0 mg/kg/injection, vehicle: saline): 108 % of control and 111 % of control
- T/C (dose: 20.0 mg/kg/injection, vehicle: saline): 108 % of control and 115 % of control
- T/C (dose: 40.0 mg/kg/injection, vehicle: saline): 116 % of control and 123 % of control
- T/C (dose: 80.0 mg/kg/injection, vehicle: saline): 92 % of control
